Test results published in US20190136321A1, “USE OF TRANSLATIONAL PROFILING TO IDENTIFY TARGET MOLECULES FOR THERAPEUTIC TREATMENT” (The Regents of The University of California, priority 2013, published 2019).

How the values were obtained:
[1] = tested on: SW620 cells; experiment: Proliferation assay on SW620 cells; type: cell-based, human
[2] = tested on: SW620 cells; experiment: Ribosome profiling of SW620 cells (transcription, translational rate, translational efficiency); type: cell-based, human; conditions: 8 hours
Method: SW620 human colon cancer cells were cultured in DMEM media supplemented with penicillin G (100 U/ml), streptomycin (100 μg/ml), and 10% FBS in a humidified atmosphere of 5% CO2 maintained at 37° C.
SW620 cells (ATCC, passage 12) were seeded at about 75% confluence 24 hrs prior to drug treatment. […] About 6×10^6 cells/10 cm plate and about 1×10^6 cells/well of a 6-well plate were harvested for ribosome profiling and Western blot analysis, respectively, following drug treatment.

**Q.** Which results are given for CC(=O)Nc1cccc(-n2c(=O)n(C3CC3)c(=O)c3c(Nc4ccc(I)cc4F)n(C)c(=O)c(C)c32)c1 [GSK212]?
**A.** inhibition of proliferation or induction of apoptosis ([1]; 250 nM for 8 hours): No evidence; potency in 72 hour proliferation assays ([1]; 72 hour (data not shown)): 20 to 30 nM; Profile TE ([2]; gene ARID5A, 250 nM): −0.4 log2 MEKi/DMSO; Profile rna ([2]; gene ARID5A, 250 nM): −0.5 log2 MEKi/DMSO; Profile rpf ([2]; gene ARID5A, 250 nM): −0.9 log2 MEKi/DMSO; Profile TE ([2]; gene B4GALT6, 250 nM): 0.0 log2 MEKi/DMSO; Profile rna ([2]; gene B4GALT6, 250 nM): 0.0 log2 MEKi/DMSO; Profile rpf ([2]; gene B4GALT6, 250 nM): −0.1 log2 MEKi/DMSO; Profile TE ([2]; gene BXDC2/BRIX1, 250 nM): 0.2 log2 MEKi/DMSO; Profile rna ([2]; gene BXDC2/BRIX1, 250 nM): −1.1 log2 MEKi/DMSO; Profile rpf ([2]; gene BXDC2/BRIX1, 250 nM): −0.8 log2 MEKi/DMSO; Profile TE ([2]; gene BYSL, 250 nM): 0.2 log2 MEKi/DMSO; Profile rna ([2]; gene BYSL, 250 nM): −0.8 log2 MEKi/DMSO; Profile rpf ([2]; gene BYSL, 250 nM): −0.6 log2 MEKi/DMSO; Profile TE ([2]; gene CCND1, 250 nM): −0.3 log2 MEKi/DMSO; Profile rna ([2]; gene CCND1, 250 nM): −1.8 log2 MEKi/DMSO; Profile rpf ([2]; gene CCND1, 250 nM): −2.0 log2 MEKi/DMSO; Profile TE ([2]; gene CD3EAP, 250 nM): −0.5 log2 MEKi/DMSO; Profile rna ([2]; gene CD3EAP, 250 nM): −0.6 log2 MEKi/DMSO; Profile rpf ([2]; gene CD3EAP, 250 nM): −1.1 log2 MEKi/DMSO; Profile TE ([2]; gene CHSY1, 250 nM): −0.7 log2 MEKi/DMSO; Profile rna ([2]; gene CHSY1, 250 nM): 0.0 log2 MEKi/DMSO; Profile rpf ([2]; gene CHSY1, 250 nM): −0.7 log2 MEKi/DMSO; Profile TE ([2]; gene DDX21, 250 nM): −0.6 log2 MEKi/DMSO; Profile rna ([2]; gene DDX21, 250 nM): −0.3 log2 MEKi/DMSO; Profile rpf ([2]; gene DDX21, 250 nM): −1.0 log2 MEKi/DMSO; Profile TE ([2]; gene DUSP4, 250 nM): −0.4 log2 MEKi/DMSO; Profile rna ([2]; gene DUSP4, 250 nM): −2.0 log2 MEKi/DMSO; Profile rpf ([2]; gene DUSP4, 250 nM): −2.4 log2 MEKi/DMSO; Profile TE ([2]; gene DUSP6, 250 nM): −3.1 log2 MEKi/DMSO; Profile rna ([2]; gene DUSP6, 250 nM): −6.3 log2 MEKi/DMSO; Profile rpf ([2]; gene DUSP6, 250 nM): −9.3 log2 MEKi/DMSO; Profile TE ([2]; gene EGR1, 250 nM): −3.1 log2 MEKi/DMSO; Profile rna ([2]; gene EGR1, 250 nM): −1.0 log2 MEKi/DMSO; Profile rpf ([2]; gene EGR1, 250 nM): −4.1 log2 MEKi/DMSO; Profile TE ([2]; gene ELOVL6, 250 nM): 0.6 log2 MEKi/DMSO; Profile rna ([2]; gene ELOVL6, 250 nM): −1.4 log2 MEKi/DMSO; Profile rpf ([2]; gene ELOVL6, 250 nM): −0.8 log2 MEKi/DMSO; Profile rna ([2]; gene ETV1, 250 nM): −3.5 log2 MEKi/DMSO; Profile TE ([2]; gene ETV4, 250 nM): −0.6 log2 MEKi/DMSO; Profile rna ([2]; gene ETV4, 250 nM): −2.2 log2 MEKi/DMSO; Profile rpf ([2]; gene ETV4, 250 nM): −2.8 log2 MEKi/DMSO; Profile TE ([2]; gene ETV5, 250 nM): −3.0 log2 MEKi/DMSO; Profile rna ([2]; gene ETV5, 250 nM): −2.6 log2 MEKi/DMSO; Profile rpf ([2]; gene ETV5, 250 nM): −5.6 log2 MEKi/DMSO; Profile TE ([2]; gene FLJ10534/TSR1, 250 nM): −0.6 log2 MEKi/DMSO; Profile rna ([2]; gene FLJ10534/TSR1, 250 nM): −0.3 log2 MEKi/DMSO; Profile rpf ([2]; gene FLJ10534/TSR1, 250 nM): −0.8 log2 MEKi/DMSO; Profile TE ([2]; gene FOS, 250 nM): 0.2 log2 MEKi/DMSO; Profile rna ([2]; gene FOS, 250 nM): −2.9 log2 MEKi/DMSO; Profile rpf ([2]; gene FOS, 250 nM): −2.7 log2 MEKi/DMSO; Profile TE ([2]; gene FOSL1, 250 nM): −0.5 log2 MEKi/DMSO; Profile rna ([2]; gene FOSL1, 250 nM): −3.6 log2 MEKi/DMSO; Profile rpf ([2]; gene FOSL1, 250 nM): −4.1 log2 MEKi/DMSO; Profile TE ([2]; gene GEMIN4, 250 nM): −0.5 log2 MEKi/DMSO; Profile rna ([2]; gene GEMIN4, 250 nM): −0.1 log2 MEKi/DMSO; Profile rpf ([2]; gene GEMIN4, 250 nM): −0.6 log2 MEKi/DMSO; Profile TE ([2]; gene GNL3, 250 nM): −0.2 log2 MEKi/DMSO; Profile rna ([2]; gene GNL3, 250 nM): −0.7 log2 MEKi/DMSO; Profile rpf ([2]; gene GNL3, 250 nM): −0.8 log2 MEKi/DMSO; Profile rpf ([2]; gene GPR3, 250 nM): −2.8 log2 MEKi/DMSO; Profile TE ([2]; gene GTPBP4, 250 nM): −0.3 log2 MEKi/DMSO; Profile rna ([2]; gene GTPBP4, 250 nM): −0.4 log2 MEKi/DMSO; Profile rpf ([2]; gene GTPBP4, 250 nM): −0.7 log2 MEKi/DMSO; Profile TE ([2]; gene HMGA2, 250 nM): 1.2 log2 MEKi/DMSO; Profile rna ([2]; gene HMGA2, 250 nM): −2.9 log2 MEKi/DMSO; Profile rpf ([2]; gene HMGA2, 250 nM): −1.7 log2 MEKi/DMSO; Profile TE ([2]; gene HSPC111/NOP16, 250 nM): 0.6 log2 MEKi/DMSO; Profile rna ([2]; gene HSPC111/NOP16, 250 nM): −1.5 log2 MEKi/DMSO; Profile rpf ([2]; gene HSPC111/NOP16, 250 nM): −0.9 log2 MEKi/DMSO; Profile TE ([2]; gene IER3, 250 nM): −0.1 log2 MEKi/DMSO; Profile rna ([2]; gene IER3, 250 nM): −2.2 log2 MEKi/DMSO; Profile rpf ([2]; gene IER3, 250 nM): −2.3 log2 MEKi/DMSO; Profile TE ([2]; gene IL8, 250 nM): 2.4 log2 MEKi/DMSO
